Measured values taken from patent US20220204539A1, “CD73 INHIBITORS” (BioArdis LLC, priority 2019, published 2022).

Experiments:
[1] = biological target: T1, Cell surface CD73 of U87 MG human glioblastoma cells (Homo sapiens, UniProt P21589); assay: CD73 Cellular Assay; assay type: cell-based; details: 5000 cells per well, 30 μM AMP substrate, read-out: Potency (IC50, CD73 cellular assay)
T1 construct: Cell surface CD73 catalyzes the conversion of adenosine monophosphate (AMP) to adenosine and inorganic phosphate; endogenous in cells; host or cells: U87 MG human glioblastoma cells
T1 sequence (P21589 27-549): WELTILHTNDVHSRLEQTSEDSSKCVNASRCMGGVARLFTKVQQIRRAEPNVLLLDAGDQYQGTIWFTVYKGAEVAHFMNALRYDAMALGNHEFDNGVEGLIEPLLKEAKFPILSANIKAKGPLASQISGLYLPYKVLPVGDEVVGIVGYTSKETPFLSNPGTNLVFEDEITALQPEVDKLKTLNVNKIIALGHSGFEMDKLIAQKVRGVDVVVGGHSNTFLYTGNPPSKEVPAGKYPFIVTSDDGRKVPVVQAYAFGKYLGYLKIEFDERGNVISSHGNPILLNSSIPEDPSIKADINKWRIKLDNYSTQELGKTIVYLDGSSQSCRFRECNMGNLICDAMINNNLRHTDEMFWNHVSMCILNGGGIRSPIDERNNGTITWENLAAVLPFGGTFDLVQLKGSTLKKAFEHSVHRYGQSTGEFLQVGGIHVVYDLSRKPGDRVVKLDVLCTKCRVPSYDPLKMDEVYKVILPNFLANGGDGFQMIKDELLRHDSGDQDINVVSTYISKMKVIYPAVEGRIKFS
Method: Cell surface CD73 catalyzes the conversion of adenosine monophosphate (AMP) to adenosine and inorganic phosphate. U87 MG human glioblastoma cells express high level of CD73. Cells are treated with compounds in a 96-well assay plate and supernatants are collected into a 384-well detection plate. The concentration of inorganic phosphate (Pi) in the supernatants is determined using the phosphate detection reagent, PiColorLock™ (Innova Bioscience, Cat #303-0125) following the manufacturer's instructions.
Briefly, on the day of the assay, U87 MG cells were harvested and resuspended in assay buffer which consisted of 20 mM HEPES, pH=7.4, 137 mM NaCl, 5.4 mM KCl, 1.3 mM CaCl2, 4.2 mM NaHCO3 and 0.1% glucose. To test the effect of compounds on cellular CD73 enzymatic activity, 500 nL/well of compounds dissolved in DMSO were added to a 96-well TC-treated microplate (Corning #3599). Next, 80 μL/well of U87 MG cells in assay buffer were added to assay plate. After 30 minutes of incubation in an atmosphere of 5% CO2 at 37° C., 20 μL/well of 150 μM AMP (Adenosine 5′-monophosphate monohydrate, Sigma, Cat #01930) in assay buffer was added to assay plate. Final assay conditions consisted of 5000 cells per well in 0.5% DMSO and 30 μM AMP substrate. After 50 minutes of incubation in an atmosphere of 5% CO2 at 37° C., 50 μL/well of supernatant was transferred to the 384-well detection plate (Corning® NBS™ 384 well plates, Cat #3640). Meanwhile “Gold mix” was prepared shortly before use by adding 1/100 volume of accelerator to the PiColorLock™ Gold reagent. 12 μL/well of the “Gold mix” was added to detection plate containing 50 μL/well of supernatant and incubated at 25° C. for 5 minutes. 5 μL/well stabilizer was added to the detection plate and incubated at 25° C. for 30 minutes. The absorbance at 635 nm was measured on a Spark 10M instrument (TECAN). The percent (%) inhibition at each concentration of a compound was calculated relative to the OD value in the Max and Min control wells contained within each assay plate. The Max control wells contained cells and substrate as 0% inhibition, and the Min control wells only contained cells as 100% inhibition. The concentrations and percent inhibition values for a test compound are plotted and the concentration of a the compound required to achieve 50% inhibition (IC50) was determined with a four-parameter logistic dose response equation.

[2] = biological target: T2, Recombinant Human 5′-Nucleotidase (CD73) (Homo sapiens, UniProt P21589); assay: CD73 Enzyme Assay; assay type: biochemical; details: human CD73 0.5 nM, AMP 30 μM, PiColorLock phosphate detection; read-out: Potency (IC50, CD73 enzyme assay)
T2 construct: CHO derived CD73 (Trp27-Lys547), with a C-terminal 6-His tag; 6-His (C); purchased R&D 5795-EN; host or cells: CHO
T2 sequence (P21589 27-547): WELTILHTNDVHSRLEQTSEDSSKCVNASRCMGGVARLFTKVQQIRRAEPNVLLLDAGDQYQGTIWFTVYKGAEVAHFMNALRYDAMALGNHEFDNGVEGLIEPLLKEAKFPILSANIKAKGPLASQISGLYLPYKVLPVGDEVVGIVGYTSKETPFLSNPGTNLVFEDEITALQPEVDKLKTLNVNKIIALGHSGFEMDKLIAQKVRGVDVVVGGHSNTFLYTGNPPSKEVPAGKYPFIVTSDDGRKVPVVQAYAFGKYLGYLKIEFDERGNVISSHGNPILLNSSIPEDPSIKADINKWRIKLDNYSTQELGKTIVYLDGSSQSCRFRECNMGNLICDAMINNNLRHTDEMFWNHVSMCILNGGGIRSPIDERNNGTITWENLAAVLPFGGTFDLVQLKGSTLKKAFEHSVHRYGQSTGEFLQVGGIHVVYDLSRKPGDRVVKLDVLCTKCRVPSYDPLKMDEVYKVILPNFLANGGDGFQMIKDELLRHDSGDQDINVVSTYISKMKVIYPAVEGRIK
In short: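 Human CD73 (CHO-derived Trp27-Lys547, His-tagged; 0.5 nM final) was preincubated with compound for 15 min at 25° C. in Tris pH 7.5 buffer with MgCl2. It then reacted with 30 μM AMP for 20 min at 37° C., and released phosphate was read by malachite green absorbance at 635 nm. IC50 came from four-parameter fits against enzyme and no-enzyme controls.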

Row | Compound | IC50 [1] | IC50 [2]
1 | O=P(O)(O)CP(=O)(O)OC[C@H]1O[C@@H](c2cnc3c(NC4CCCCC4)nc(Cl)nn23)[C@H](O)[C@@H]1O [Compound 20, (((((2R,3S,4R,1S)-5-(2-chloro-4-(cyclohexylamino)imidazo[2,1-f][1,2,4]triazin-7-yl)-3,4-dihydroxytetrahydrofuran-2-yl)methoxy)(hydroxy)phosphoryl)methyl)phosphonic Acid] | < 1 nM | < 10 nM
2 | O=P(O)(O)CP(=O)(O)OC[C@H]1O[C@@H](c2cnc3c(N[C@H]4CCOC4)nc(Cl)nn23)[C@H](O)[C@@H]1O [Compound 21, [({[(2R,3S,4R,5S)-5-{2-chloro-4-[(3S)-oxolan-3-ylamino]imidazo[2,1-f][1,2,4]triazin-7-yl}-3,4-dihydroxyoxolan-2-yl]methoxy}(hydroxy)phosphoryl)methyl]phosphonic Acid] | < 1 nM | < 10 nM
3 | O=P(O)(O)CP(=O)(O)OC[C@H]1O[C@@H](c2cnc3c(N[C@@H]4CCOC4)nc(Cl)nn23)[C@H](O)[C@@H]1O [Compound 22, (((((2R,3S,4R,1S)-5-(2-chloro-4-(((R)-tetrahydrofuran-3-yl)amino)imidazo[2,1-f][1,2,4]triazin-7-yl)-3,4-dihydroxytetrahydrofuran-2-yl)methoxy)(hydroxy)phosphoryl)methyl)phosphonic Acid] | < 1 nM | < 10 nM
4 | COC1CCC(Nc2nc(Cl)nn3c([C@@H]4O[C@H](COP(=O)(O)CP(=O)(O)O)[C@@H](O)[C@H]4O)cnc23)C1 (stereo partly drawn) [Compound 23, (((((2R,3S,4R,1S)-5-(2-chloro-4-((3-methoxycyclopentyl)amino)imidazo[2,1-f][1,2,4]triazin-7-yl)-3,4-dihydroxytetrahydrofuran-2-yl)methoxy)(hydroxy)phosphoryl)methyl)phosphonic acid] | < 1 nM | < 10 nM
5 | O=P(O)(O)CP(=O)(O)OC[C@H]1O[C@@H](c2cnc3c(N4Cc5ccccc5C4)nc(Cl)nn23)[C@H](O)[C@@H]1O [Compound 24, [({[(2R,3S,4R,5S)-5-[2-chloro-4-(1,3-dihydroisoindol-2-yl)imidazo[2,1-f][1,2,4]triazin-7-yl]-3,4-dihydroxyoxolan-2-yl]methoxy}(hydroxy)phosphoryl)methyl]phosphonic acid] | < 1 nM | < 10 nM

The next lines start with the values.

Row | IC50 [1] | IC50 [2] | Compound
6 | < 1 nM | < 10 nM | CO[C@H]1CC[C@H](Nc2nc(Cl)nn3c([C@@H]4O[C@H](COP(=O)(O)CP(=O)(O)O)[C@@H](O)[C@H]4O)cnc23)CC1 [Compound 17, (((((2R,3S,4R,1S)-5-(2-chloro-4-(((1r,4S)-4-methoxycyclohexyl)amino)imidazo[2,1-f][1,2,4]triazin-7-yl)-3,4-dihydroxytetrahydrofuran-2-yl)methoxy)(hydroxy)phosphoryl)methyl)phosphonic acid]
7 | 1 to 9.9 nM | < 10 nM | O=P(O)(O)CP(=O)(O)OC[C@H]1O[C@@H](c2cnc3c(N4CCc5ccccc54)nc(Cl)nn23)[C@H](O)[C@@H]1O [Compound 18, (((((2R,3S,4R,1S)-5-(2-chloro-4-(indolin-1-yl)imidazo[2,1-f][1,2,4]triazin-7-yl)-3,4-dihydroxytetrahydrofuran-2-yl)methoxy)(hydroxy)phosphoryl)methyl)phosphonic Acid]
8 | < 1 nM | < 10 nM | O=P(O)(O)CP(=O)(O)OC[C@H]1O[C@@H](c2cnc3c(N4CCc5ccccc5C4)nc(Cl)nn23)[C@H](O)[C@@H]1O [Compound 19, (((((2R,3S,4R,1S)-5-(2-chloro-4-(3,4-dihydroisoquinolin-2(1H)-yl)imidazo[2,1-f][1,2,4]triazin-7-yl)-3,4-dihydroxytetrahydrofuran-2-yl)methoxy)(hydroxy)phosphoryl)methyl)phosphonic Acid]
9 | < 1 nM | < 10 nM | CO[C@H]1CC[C@@H](Nc2nc(Cl)nn3c([C@@H]4O[C@H](COP(=O)(O)CP(=O)(O)O)[C@@H](O)[C@H]4O)cnc23)CC1 [Compound 27, (((((2R,3S,4R,1S)-5-(2-chloro-4-(((1s,4R)-4-methoxycyclohexyl)amino)imidazo[2,1-f][1,2,4]triazin-7-yl)-3,4-dihydroxytetrahydrofuran-2-yl)methoxy)(hydroxy)phosphoryl)methyl)phosphonic Acid]
10 | < 1 nM | < 10 nM | O=P(O)(O)CP(=O)(O)OC[C@H]1O[C@@H](c2cnc3c(N[C@@H]4CCc5ccccc54)nc(Cl)nn23)[C@H](O)[C@@H]1O [Compound 28, (((((2R,3S,4R,1S)-5-(2-chloro-4-(((R)-2,3-dihydro-1H-inden-1-yl)amino)imidazo[2,1-f][1,2,4]triazin-7-yl)-3,4-dihydroxytetrahydrofuran-2-yl)methoxy)(hydroxy)phosphoryl)methyl)phosphonic Acid]
11 | < 1 nM | < 10 nM | CN(c1nc(Cl)nn2c([C@@H]3O[C@H](COP(=O)(O)CP(=O)(O)O)[C@@H](O)[C@H]3O)cnc12)C1CCc2ccccc21 (stereo partly drawn) [Compound 29, (((((2R,3S,4R,1S)-5-(2-chloro-4-(((R)-2,3-dihydro-1H-inden-1-yl)(methyl)amino)imidazo[2,1-f][1,2,4]triazin-7-yl)-3,4-dihydroxytetrahydrofuran-2-yl)methoxy)(hydroxy)phosphoryl)methyl)phosphonic Acid]
12 | < 1 nM | < 10 nM | CN(c1nc(Cl)nn2c([C@@H]3O[C@H](COP(=O)(O)CP(=O)(O)O)[C@@H](O)[C@H]3O)cnc12)[C@H]1CCc2ccccc21 [Compound 30, (((((2R,3S,4R,1S)-5-(2-chloro-4-(((S)-2,3-dihydro-1H-inden-1-yl)(methyl)amino)imidazo[2,1-f][1,2,4]triazin-7-yl)-3,4-dihydroxytetrahydrofuran-2-yl)methoxy)(hydroxy)phosphoryl)methyl)phosphonic Acid]
13 | < 1 nM | < 10 nM | C[C@H](Nc1nc(Cl)nn2c([C@@H]3O[C@H](COP(=O)(O)CP(=O)(O)O)[C@@H](O)[C@H]3O)cnc12)c1ccccc1F [Compound 32, (((((2R,3S,4R,1S)-5-(2-chloro-4-(((S)-1-(2-fluorophenyl)ethyl)amino)imidazo[2,1-f][1,2,4]triazin-7-yl)-3,4-dihydroxytetrahydrofuran-2-yl)methoxy)(hydroxy)phosphoryl)-methyl)phosphonic Acid]
